Data as given in US20230263822A1, “MODULATION OF FACTOR 11 EXPRESSION” (Ionis Pharmaceuticals, Inc., priority 2008, published 2023).
Strand notation (5' to 3'): a small letter for the sugar, then the base; units joined by * are phosphorothioate-linked, units joined directly phosphodiester-linked; [ ] holds rarer units or linkages, { } end groups; capitals alone tell only the bases. e = 2'-O-(2-methoxyethyl) (MOE); [5mC] = 5-methylcytosine; d = 2'-deoxy (DNA)

How the values were obtained:
Factor 11 mRNA = Factor 11 mRNA in cynomolgus monkey liver, day 55 (Example 46); format: in vivo, cynomolgus monkeys; details: for % inhibition of Factor 11 mRNA in liver relative to the PBS control: 25 mg/kg subcutaneously, primer probe set LTS00301; for Factor 11 mRNA in liver vs PBS control: cynomolgus monkeys, 25 mg/kg
Description: (§1) Groups, each consisting of two male and two female monkeys, were injected subcutaneously with 25 mg/kg of ISIS 416850, ISIS 449709, ISIS 445522, ISIS 449710, ISIS 449707, ISIS 449711, ISIS 449708, 416858, and ISIS 445531. Antisense oligonucleotide was administered to the monkeys at 25 mg/kg three times per week for week 1 and 25 mg/kg twice per week for weeks 2 to 8. A control group, consisting of two male and two female monkeys was injected subcutaneously with PBS according to the same dosing regimen. Body weights were taken 14 days and 7 days before the start of treatment and were then measured weekly throughout the treatment period. Blood samples were collected 14 days and 5 days before the start of treatment and subsequently several times during the dosing regimen for PT and aPTT measurements, and measurement of various hematologic factors. On day 55, the monkeys were euthanized by exsanguination while under deep anesthesia, and organs harvested for further analysis.
On day 55, RNA was extracted from liver tissue for real-time PCR analysis of Factor 11 using primer probe set LTS00301. Results are presented as percent inhibition of Factor 11, relative to PBS control.

[1] = Body and organ weights of cynomolgus monkeys (Example 46); format: in vivo; design: Liver weight / Spleen weight / Kidney weight: unit not given here
Description: as §1
Organ weights were taken after the animals were euthanized on day 55, and livers, kidneys and spleens were harvested.

[2] = Liver function, ALT, AST, bilirubin in cynomolgus monkeys (Example 46); format: in vivo; details: plasma
Description: as §1
Plasma concentrations of alanine transaminase (ALT) and aspartate transaminase (AST) were measured and the results are presented in Tables 152 and 153 expressed in IU/L. Plasma levels of bilirubin were also measured and results are presented in Table 154 expressed in mg/dL. As observed in Tables 152-154, there were no significant increases in any of the liver metabolic markers after antisense oligonucleotide treatment.

445522 (antisense eG*e[5mC]*eA*e[5mC]*eA*dG*dT*dT*dT*d[5mC]*dT*dG*dG*e[5mC]*eA*eG*eG*e[5mC]) [compound 445522]
% inhibition of Factor 11 mRNA in liver relative to the PBS control (Factor 11 mRNA): 89%

445531 (antisense eG*eG*e[5mC]*eA*eT*dT*dG*dG*dT*dG*d[5mC]*dA*d[5mC]*eA*eG*eT*eT*eT) [compound 445531]
% inhibition of Factor 11 mRNA in liver relative to the PBS control (Factor 11 mRNA): 66%

ISIS 416850: MOE gapmer, nucleobases 1275 to 1318 of SEQ ID NO: 1 (Table 8) (antisense TGCACAGTTTCTGGCAGGCC; MOE gapmer, wing and gap sizes not given here)
Factor 11 mRNA in liver vs PBS control (Factor 11 mRNA): significant reduction of Factor 11 mRNA | body weight ([1]; day 1): 2083 g | body weight ([1]; day 8): 2072 g | body weight ([1]; day 15): 2147 g | body weight ([1]; day 22): 2139 g | body weight ([1]; day 29): 2159 g | body weight ([1]; day 36): 2136 g | body weight ([1]; day 43): 2186 g | body weight ([1]; day 50): 2143 g | Kidney weight ([1]; day 55, after euthanasia): 0.51 | Liver weight ([1]; day 55, after euthanasia): 2.5 | Spleen weight ([1]; day 55, after euthanasia): 0.17 | body weight ([1]; day −7): 2074 g | body weight ([1]; day −14): 2061 g | ALT ([2]; Day 31): 45 IU/L | AST ([2]; Day 31): 46 IU/L | Bilirubin ([2]; Day 31): 0.26 mg/dL | ALT ([2]; Day 55): 55 IU/L | AST ([2]; Day 55): 57 IU/L | Bilirubin ([2]; Day 55): 0.17 mg/dL | ALT ([2]; Day −5): 42 IU/L | AST ([2]; Day −5): 45 IU/L | Bilirubin ([2]; Day −5): 0.22 mg/dL | ALT ([2]; Day −14): 48 IU/L | AST ([2]; Day −14): 62 IU/L | Bilirubin ([2]; Day −14): 0.26 mg/dL

ISIS 416858: MOE gapmer, nucleobases 1275 to 1318 of SEQ ID NO: 1 (Table 8) (antisense ACGGCATTGGTGCACAGTTT; MOE gapmer, wing and gap sizes not given here)
Factor 11 mRNA in liver vs PBS control (Factor 11 mRNA): significant reduction of Factor 11 mRNA | body weight ([1]; day 1): 2115 g | body weight ([1]; day 8): 2149 g | body weight ([1]; day 15): 2162 g | body weight ([1]; day 22): 2188 g | body weight ([1]; day 29): 2196 g | body weight ([1]; day 36): 2210 g | body weight ([1]; day 43): 2238 g | body weight ([1]; day 50): 2225 g | Kidney weight ([1]; day 55, after euthanasia): 0.47 | Liver weight ([1]; day 55, after euthanasia): 2.6 | Spleen weight ([1]; day 55, after euthanasia): 0.24 | body weight ([1]; day −7): 2092 g | body weight ([1]; day −14): 2073 g | ALT ([2]; Day 31): 46 IU/L | AST ([2]; Day 31): 60 IU/L | Bilirubin ([2]; Day 31): 0.16 mg/dL | ALT ([2]; Day 55): 58 IU/L | AST ([2]; Day 55): 69 IU/L | Bilirubin ([2]; Day 55): 0.16 mg/dL | ALT ([2]; Day −5): 66 IU/L | AST ([2]; Day −5): 100 IU/L | Bilirubin ([2]; Day −5): 0.23 mg/dL | ALT ([2]; Day −14): 43 IU/L | AST ([2]; Day −14): 64 IU/L | Bilirubin ([2]; Day −14): 0.25 mg/dL

ISIS 445522: 5-8-5 or 6-8-6 MOE microwalk gapmer (Table 44) (antisense eG*e[5mC]*eA*e[5mC]*eA*dG*dT*dT*dT*d[5mC]*dT*dG*dG*e[5mC]*eA*eG*eG*e[5mC])
Factor 11 mRNA in liver vs PBS control (Factor 11 mRNA): significant reduction of Factor 11 mRNA | body weight ([1]; day 1): 2047 g | body weight ([1]; day 8): 2094 g | body weight ([1]; day 15): 2092 g | body weight ([1]; day 22): 2114 g | body weight ([1]; day 29): 2125 g | body weight ([1]; day 36): 2121 g | body weight ([1]; day 43): 2142 g | body weight ([1]; day 50): 2127 g | Kidney weight ([1]; day 55, after euthanasia): 0.55 | Liver weight ([1]; day 55, after euthanasia): 2.6 | Spleen weight ([1]; day 55, after euthanasia): 0.23 | body weight ([1]; day −7): 2042 g | body weight ([1]; day −14): 2050 g | ALT ([2]; Day 31): 40 IU/L | AST ([2]; Day 31): 46 IU/L | Bilirubin ([2]; Day 31): 0.14 mg/dL | ALT ([2]; Day 55): 60 IU/L | AST ([2]; Day 55): 79 IU/L | Bilirubin ([2]; Day 55): 0.18 mg/dL | ALT ([2]; Day −5): 45 IU/L | AST ([2]; Day −5): 47 IU/L | Bilirubin ([2]; Day −5): 0.20 mg/dL | ALT ([2]; Day −14): 43 IU/L | AST ([2]; Day −14): 62 IU/L | Bilirubin ([2]; Day −14): 0.24 mg/dL

ISIS 445531: 5-8-5 or 6-8-6 MOE microwalk gapmer (Table 44) (antisense eG*eG*e[5mC]*eA*eT*dT*dG*dG*dT*dG*d[5mC]*dA*d[5mC]*eA*eG*eT*eT*eT)
Factor 11 mRNA in liver vs PBS control (Factor 11 mRNA): significant reduction of Factor 11 mRNA | body weight ([1]; day 1): 2125 g | body weight ([1]; day 8): 2119 g | body weight ([1]; day 15): 2109 g | body weight ([1]; day 22): 2143 g | body weight ([1]; day 29): 2148 g | body weight ([1]; day 36): 2191 g | body weight ([1]; day 43): 2233 g | body weight ([1]; day 50): 2197 g | Kidney weight ([1]; day 55, after euthanasia): 0.49 | Liver weight ([1]; day 55, after euthanasia): 2.8 | Spleen weight ([1]; day 55, after euthanasia): 0.24 | body weight ([1]; day −7): 2092 g | body weight ([1]; day −14): 2079 g | ALT ([2]; Day 31): 57 IU/L | AST ([2]; Day 31): 47 IU/L | Bilirubin ([2]; Day 31): 0.13 mg/dL | ALT ([2]; Day 55): 73 IU/L | AST ([2]; Day 55): 49 IU/L | Bilirubin ([2]; Day 55): 0.11 mg/dL | ALT ([2]; Day −5): 73 IU/L | AST ([2]; Day −5): 46 IU/L | Bilirubin ([2]; Day −5): 0.18 mg/dL | ALT ([2]; Day −14): 84 IU/L | AST ([2]; Day −14): 78 IU/L | Bilirubin ([2]; Day −14): 0.22 mg/dL

ISIS 449707: 3-8-3, 4-8-4, 2-10-2, 3-10-3 or 4-10-4 MOE microwalk gapmer (Table 46) (antisense e[5mC]*eA*e[5mC]*eA*dG*dT*dT*dT*d[5mC]*dT*dG*dG*e[5mC]*eA*eG*eG)
Factor 11 mRNA in liver vs PBS control (Factor 11 mRNA): significant reduction of Factor 11 mRNA | body weight ([1]; day 1): 2107 g | body weight ([1]; day 8): 2088 g | body weight ([1]; day 15): 2120 g | body weight ([1]; day 22): 2142 g | body weight ([1]; day 29): 2155 g | body weight ([1]; day 36): 2158 g | body weight ([1]; day 43): 2197 g | body weight ([1]; day 50): 2185 g | Kidney weight ([1]; day 55, after euthanasia): 0.53 | Liver weight ([1]; day 55, after euthanasia): 2.5 | Spleen weight ([1]; day 55, after euthanasia): 0.24 | body weight ([1]; day −7): 2083 g | body weight ([1]; day −14): 2072 g | ALT ([2]; Day 31): 52 IU/L | AST ([2]; Day 31): 50 IU/L | Bilirubin ([2]; Day 31): 0.13 mg/dL | ALT ([2]; Day 55): 63 IU/L | AST ([2]; Day 55): 52 IU/L | Bilirubin ([2]; Day 55): 0.16 mg/dL | ALT ([2]; Day −5): 56 IU/L | AST ([2]; Day −5): 53 IU/L | Bilirubin ([2]; Day −5): 0.19 mg/dL | ALT ([2]; Day −14): 54 IU/L | AST ([2]; Day −14): 64 IU/L | Bilirubin ([2]; Day −14): 0.27 mg/dL

ISIS 449711: 3-8-3, 4-8-4, 2-10-2, 3-10-3 or 4-10-4 MOE microwalk gapmer (Table 46) (antisense eA*e[5mC]*dA*dG*dT*dT*dT*d[5mC]*dT*dG*dG*d[5mC]*eA*eG)
Spleen weight ([1]; cynomolgus monkeys, 25 mg/kg, day 55, compared to the PBS control): caused increase in spleen weight | body weight ([1]; day 1): 2123 g | body weight ([1]; day 8): 2123 g | body weight ([1]; day 15): 2103 g | body weight ([1]; day 22): 2171 g | body weight ([1]; day 29): 2203 g | body weight ([1]; day 36): 2227 g | body weight ([1]; day 43): 2251 g | body weight ([1]; day 50): 2227 g | Kidney weight ([1]; day 55, after euthanasia): 0.54 | Liver weight ([1]; day 55, after euthanasia): 2.6 | Spleen weight ([1]; day 55, after euthanasia): 0.32 | body weight ([1]; day −7): 2105 g | body weight ([1]; day −14): 2049 g | ALT ([2]; Day 31): 48 IU/L | AST ([2]; Day 31): 47 IU/L | Bilirubin ([2]; Day 31): 0.13 mg/dL | ALT ([2]; Day 55): 54 IU/L | AST ([2]; Day 55): 47 IU/L | Bilirubin ([2]; Day 55): 0.13 mg/dL | ALT ([2]; Day −5): 137 IU/L | AST ([2]; Day −5): 78 IU/L | Bilirubin ([2]; Day −5): 0.16 mg/dL | ALT ([2]; Day −14): 49 IU/L | AST ([2]; Day −14): 58 IU/L | Bilirubin ([2]; Day −14): 0.23 mg/dL
